From patent publication US20230053688A1, “METHODS TO ALTER LATENCY IN EBV+ MALIGNANCIES” (Cornell University, priority 2020, published 2023) come the findings set out here.

In the test the test system is LMP1 expression in Kem I cells. The test is described as follows: microbe, parasite or virus in culture. The test is classed as cell-based, EBV. Particulars: for Average LMP1 Fold Increase / Replicate 1-LMP1 Fold Increase / Replicate 2-LMP1 Fold Increase: Kem I cells, 2.5 uM, 48 hours; for Average LMP1 Fold Increase: average of replicates 1 and 2; for Replicate 1-LMP1 Fold Increase / Replicate 2-LMP1 Fold Increase: fold change in LMP1 transcript vs vehicle; for fold induction at 2.5 µM / fold induction at 1 µM: human gammaherpesvirus 4, 48 h.

Setting [1] is: read-out: Average LMP1 Fold Increase, Kem I cells, 2.5 uM, 48 hours, average of replicates 1 and 2.
Where [2] appears, read: read-out: Replicate 1-LMP1 Fold Increase, Kem I cells, 2.5 uM, 48 hours, fold change in LMP1 transcript vs vehicle.
[3] abbreviates: read-out: Replicate 2-LMP1 Fold Increase, Kem I cells, 2.5 uM, 48 hours, fold change in LMP1 transcript vs vehicle.
Where [4] appears, read: read-out: Average LMP1 Fold Increase, Kem I cells, 1 uM, 48 hours, average of replicates 1 and 2.
[5] abbreviates: read-out: Replicate 1-LMP1 Fold Increase, Kem I cells, 1 uM, 48 hours, fold change in LMP1 transcript vs vehicle.
Setting [6] is: read-out: Replicate 2-LMP1 Fold Increase, Kem I cells, 1 uM, 48 hours, fold change in LMP1 transcript vs vehicle.

Structures can show the parent of a compound that is named as a salt. Where two headings read alike, the source gives them in different places.

Consider `CC(C)Oc1ccc(-c2cnc3c(-c4ccnc5ccccc45)cnn3c2)cc1` [DMH1], for which the “Average LMP1 Fold Increase” value was 0.75, the “Replicate 1-LMP1 Fold Increase” value is 0.21 and the “Replicate 2-LMP1 Fold Increase” value is listed as 1.28.
On the same counts, the results for `Cc1ccc2c(=O)c3cccc(CC(=O)O)c3oc2c1C` [DMXAA (Vadimezan)] are 0.87, 0.44 and 1.29.
For `CC(C)(C)c1nc(-c2cccc(NS(=O)(=O)c3c(F)cccc3F)c2F)c(-c2ccnc(N)n2)s1` [Dabrafenib (GSK2118436)], in that order: 0.92, 0.61 and 1.22.
Regarding `CCC(CC)CC1(C(=O)Nc2ccccc2SC(=O)C(C)C)CCCCC1` [Dalcetrapib (JTT-705, RO4607381)], the “Average LMP1 Fold Increase” value amounted to 0.98, the “Replicate 1-LMP1 Fold Increase” value turned out to be 0.61 and the “Replicate 2-LMP1 Fold Increase” value stood at 1.34.
With `CCOc1ccc(Cc2cc([C@@H]3O[C@H](CO)[C@@H](O)[C@H](O)[C@H]3O)ccc2Cl)cc1` [Dapagliflozin], the fold induction at 2.5 µM under setting [1] amounted to 1.01, the fold induction at 2.5 µM under setting [2] was determined as 0.69 and the fold induction at 2.5 µM under setting [3] amounted to 1.34.
With `COc1cccc2c1C(=O)c1c(O)c3c(c(O)c1C2=O)C[C@@](O)(C(C)=O)C[C@@H]3O[C@H]1C[C@H](N)[C@H](O)[C@H](C)O1` [Daunorubicin HCl], the fold induction at 2.5 µM came out at 242 under setting [1], 221 under setting [2] and 262 under setting [3].
On the same counts, the results for `COc1cc2nc(N3CCN(C(=O)C4COc5ccccc5O4)CC3)nc(N)c2cc1OC` (stereo not drawn) [Doxazosin Mesylate] are 0.81, 0.67 and 0.95.
Regarding `COc1cccc2c1C(=O)c1c(O)c3c(c(O)c1C2=O)C[C@@](O)(C(=O)CO)C[C@@H]3O[C@H]1C[C@H](N)[C@H](O)[C@H](C)O1` [Doxorubicin], the fold induction at 1 µM amounted to 47 under setting [4], 39.2 under setting [5] and 54.8 under setting [6].
For the molecule `C[C@]12C=CC(=O)N[C@@H]1CC[C@@H]1[C@@H]2CC[C@]2(C)[C@@H](C(=O)Nc3cc(C(F)(F)F)ccc3C(F)(F)F)CC[C@@H]12` [Dutasteride], the fold induction at 2.5 µM was determined as 0.39 under setting [1], 0.38 under setting [2] and 0.41 under setting [3].
On the same counts, the results for `O=C(N/N=C/c1ccc(O)c(O)c1)c1cc2ccccc2cc1O` [Dynasore] are 0.77, 0.64 and 0.89.
As for `CCn1c2ccccc2c2cc(Nc3ccnc(NCCCN4CCOCC4)n3)ccc21` [EHop-016], the “Average LMP1 Fold Increase” value is 1.06, the “Replicate 1-LMP1 Fold Increase” value is given as 0.70 and the “Replicate 2-LMP1 Fold Increase” value was 1.43.
Take `CCN(c1cc(-c2ccc(CN3CCOCC3)cc2)cc(C(=O)NCc2c(C)cc(C)[nH]c2=O)c1C)C1CCOCC1` [EPZ 6438]: the fold induction at 1 µM reads like this: under setting [4], 24.5; under setting [5], 2.14; under setting [6], 46.9.
For the molecule `CCN(c1cc(C#CCN2CCOCC2)cc(C(=O)NCc2c(C)cc(C)[nH]c2=O)c1C)[C@H]1CC[C@H](N(C)CCOC)CC1` [EPZ 011989], the fold induction at 1 µM reads like this: under setting [4], 30.5; under setting [5], 4.1; under setting [6], 56.9.
Consider `COc1cccc(C=NCCN=Cc2cccc(OC)c2[O-])c1[O-].[Cl-].[Mn+3]` [EUK 134], for which the “Average LMP1 Fold Increase” value is 0.90, the “Replicate 1-LMP1 Fold Increase” value is recorded as 0.85 and the “Replicate 2-LMP1 Fold Increase” value was found to be 0.95.
On the same counts, the results for `NC(=O)C1CCCc2c1[nH]c1ccc(Cl)cc21` (stereo not drawn) [EX 527 (Selisistat)] are 0.81, 0.24 and 1.38.
For `COc1cc2c(cc1Cc1cccc(Cl)c1F)c(=O)c(C(=O)O)cn2[C@H](CO)C(C)C` [Elvitegravir (GS-9137, JTK-303)], in that order: 1.23, 1.25 and 1.20.
`CCCCCCCCCCCC1=C(O)C(=O)C=C(O)C1=O` [Embelin]: the fold induction at 2.5 µM stood at 0.59 under setting [1], 0.43 under setting [2] and 0.74 under setting [3].
In the case of `OC[C@H]1O[C@@H](c2ccc(Cl)c(Cc3ccc(O[C@H]4CCOC4)cc3)c2)[C@H](O)[C@@H](O)[C@@H]1O` [Empagliflozin (BI 10773)], the “Average LMP1 Fold Increase” value was 0.58, the “Replicate 1-LMP1 Fold Increase” value was 0.67 and the “Replicate 2-LMP1 Fold Increase” value came out at 0.50.
For the molecule `C[C@H](N[C@@H](CCc1ccccc1)C(=O)O)C(=O)N1CCC[C@H]1C(=O)O.O.O` [Enalaprilat Dihydrate], the “Average LMP1 Fold Increase” value is recorded as 0.51, the “Replicate 1-LMP1 Fold Increase” value is 0.51 and the “Replicate 2-LMP1 Fold Increase” value came out at 0.52.
Take `CCN(CC)C(=O)/C(C#N)=C/c1cc(O)c(O)c([N+](=O)[O-])c1` [Entacapone]: the fold induction at 2.5 µM was 0.6 under setting [1], 0.49 under setting [2] and 0.71 under setting [3].
`CNC(=O)c1ccc(N2C(=S)N(c3ccc(C#N)c(C(F)(F)F)c3)C(=O)C2(C)C)cc1F` [Enzalutamide (MDV3100)]: the “Average LMP1 Fold Increase” value amounted to 0.96, the “Replicate 1-LMP1 Fold Increase” value amounted to 0.88 and the “Replicate 2-LMP1 Fold Increase” value was determined as 1.05.
On the same counts, the results for `Cn1cc(C2=C(c3cn(C4CCN(Cc5ccccn5)CC4)c4ccccc34)C(=O)NC2=O)c2ccccc21` [Enzastaurin (LY317615)] are 25.14, 0.48 and 49.80.
For the molecule `CCOc1ccccc1-n1c(C(C)N2CCN(C(=O)COc3ccc(Cl)cc3)CC2)nc2ccccc2c1=O` (stereo not drawn) [Erastin], the fold induction at 2.5 µM under setting [1] worked out at 0.73, the fold induction at 2.5 µM under setting [2] turned out to be 0.7 and the fold induction at 2.5 µM under setting [3] is 0.75.
`COc1ccc2nc([S@@+]([O-])Cc3ncc(C)c(OC)c3C)[nH]c2c1` [Esomeprazole Sodium]: the fold induction at 2.5 µM is, setting by setting: under setting [1], 0.3; under setting [2], 0.16; under setting [3], 0.44.
With `CCc1cccc2c3c([nH]c12)C(CC)(CC(=O)O)OCC3` (stereo not drawn) [Etodolac], the fold induction at 2.5 µM is, setting by setting: under setting [1], 0.84; under setting [2], 0.57; under setting [3], 1.1.
On the same counts, the results for `CCOC(=O)c1cncn1[C@H](C)c1ccccc1` [Etomidate] are 0.5, 0.56 and 0.44.
Consider `CO[C@H]1C[C@@H]2CC[C@@H](C)[C@@](O)(O2)C(=O)C(=O)N2CCCC[C@H]2C(=O)O[C@H]([C@H](C)C[C@@H]2CC[C@@H](OCCO)[C@H](OC)C2)CC(=O)[C@H](C)/C=C(\C)[C@@H](O)[C@@H](OC)C(=O)[C@H](C)C[C@H](C)/C=C/C=C/C=C/1C` [Everolimus (RAD001)], for which the “Average LMP1 Fold Increase” value is 1.65, the “Replicate 1-LMP1 Fold Increase” value amounted to 2.00 and the “Replicate 2-LMP1 Fold Increase” value is 1.31.
On to `C=C1C[C@@H]2[C@H](CC[C@]3(C)C(=O)CC[C@@H]23)[C@@]2(C)C=CC(=O)C=C12` [Exemestane], for which the fold induction at 2.5 µM amounted to 0.7 under setting [1], 0.53 under setting [2] and 0.86 under setting [3].
For `Cc1nc(C(=O)NCC(=O)O)c(O)c2ccc(Oc3ccccc3)cc12` [FG-4592], in that order: 0.22, 0.19 and 0.24.
In the case of `CC1=C(C(=O)OC2CCCCC2)C(c2ccc([N+](=O)[O-])cc2)C2=C(CC(C)(C)CC2=O)N1` (stereo not drawn) [FLI-06], the “Average LMP1 Fold Increase” value is given as 0.46, the “Replicate 1-LMP1 Fold Increase” value worked out at 0.19 and the “Replicate 2-LMP1 Fold Increase” value was 0.73.
In the case of `CCOC(=O)C1=C(C)NC(C)=C(C(=O)OC)C1c1cccc(Cl)c1Cl` (stereo not drawn) [Felodipine], the fold induction at 2.5 µM is, setting by setting: under setting [1], 0.77; under setting [2], 0.84; under setting [3], 0.69.
Consider `CCOC(=O)c1ccc(NC2CCCCC2)c(N)c1` [Ferrostatin-1 (Fer-1)], for which the “Average LMP1 Fold Increase” value is recorded as 0.22, the “Replicate 1-LMP1 Fold Increase” value is 0.24 and the “Replicate 2-LMP1 Fold Increase” value is reported as 0.19.
With `CC(C)(C)NC(=O)[C@H]1CC[C@H]2[C@@H]3CC[C@H]4NC(=O)C=C[C@]4(C)[C@H]3CC[C@]12C` [Finasteride], the fold induction at 2.5 µM is 0.66 under setting [1], 0.51 under setting [2] and 0.81 under setting [3].
As to `CCCCCCCCc1ccc(CCC(N)(CO)CO)cc1.Cl` [Fingolimod (FTY720) HCl], the “Average LMP1 Fold Increase” value was 0.69, the “Replicate 1-LMP1 Fold Increase” value is 0.33 and the “Replicate 2-LMP1 Fold Increase” value stood at 1.06.
For `CC(C)n1c(/C=C/C(O)CC(O)CC(=O)O)c(-c2ccc(F)cc2)c2ccccc21` (stereo not drawn) [Fluvastatin Sodium], the fold induction at 2.5 µM runs as follows: under setting [1], 0.94; under setting [2], 0.84; under setting [3], 1.04.
For `COCCCC/C(=N\OCCN)c1ccc(C(F)(F)F)cc1` [Fluvoxamine maleate], in that order: 0.67, 0.97 and 0.37.
